# Experimental data taken from patent publication US6518257B1, “1-substituted phenyl-1-(1h-imidazol-4-yl) alcohols, process for producing the same and use thereof” (Takeda Chemical Industries, Ltd., priority 1999, dated 2003).
# Experiments:
# Rat Steroid C17,20-lyase = target: T1, Rat Steroid C17,20-lyase (Rattus norvegicus, UniProt P11715); experiment: Assay of inhibitory activity on rat steroid C17,20-lyase (testis microsomes, [1,2-3H]-17-α-hydroxyprogesterone substrate, TLC); assay type: biochemical; settings: rat testis microsomes (7 μg/10 μl), 10 nM [1,2-3H]-17-α-hydroxyprogesterone, NADPH, pH 7.4, 37° C., 7 minutes; products androstenedione and testosterone
# T1 construct: Testes were excised from 13-week-old male SD rats, homogenized, and centrifuged to give microsomes; from tissue; host or cells: testis microsomes of 13-week-old male SD rats
# T1 sequence (P11715 1-507): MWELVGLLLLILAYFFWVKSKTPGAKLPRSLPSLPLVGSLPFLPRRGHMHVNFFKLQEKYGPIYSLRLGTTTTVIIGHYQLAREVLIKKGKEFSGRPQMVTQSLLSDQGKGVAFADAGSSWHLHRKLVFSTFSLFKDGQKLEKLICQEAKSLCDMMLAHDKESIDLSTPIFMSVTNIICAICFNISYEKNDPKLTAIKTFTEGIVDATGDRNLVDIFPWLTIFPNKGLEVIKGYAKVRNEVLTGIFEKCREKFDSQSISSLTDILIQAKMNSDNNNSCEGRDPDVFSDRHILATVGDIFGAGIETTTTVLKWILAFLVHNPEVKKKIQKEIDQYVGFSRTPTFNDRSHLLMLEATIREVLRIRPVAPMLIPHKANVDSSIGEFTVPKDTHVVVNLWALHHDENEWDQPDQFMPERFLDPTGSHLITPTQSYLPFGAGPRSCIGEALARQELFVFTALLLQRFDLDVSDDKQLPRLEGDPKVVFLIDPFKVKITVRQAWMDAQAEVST
# Procedure: Assay of Inhibitory Activity on Rat Steroid C17,20-lyase
# The activity was determined according to The Prostate, vol. 26, 140-150 (1995).
# Testes were excised from 13-week-old male SD rats, homogenized, and centrifuged to give microsomes. [1,2-^3H]-17-α-hydroxyprogesterone having a final concentration of 10 nM, NADPH solution and test compounds were dissolved in 10 μl of 100 mM phosphate buffer (pH 7.4) and microsome protein (7 μg/10 μl) was added. The reaction mixture was incubated at 37° C. for 7 minutes. Ethyl acetate (40 μl) was added and the mixture was centrifuged. The substrate and the products (androstenedione and testosterone) in the supernatant were separated by silica gel thin layer chromatography (TLC). The spots were detected and quantitatively determined by BAS 2000 Bioimage analyzer. The concentration of the test compounds necessary to reduce the amount of the products by 50% (IC50) relative to the amount of the products without test compound (control) as 100% was calculated, and shown in Table 1.
# [1] = system: Testosterone Synthesis in Rats; experiment: Assay of inhibitory activity on testosterone synthesis in rats (serum testosterone by radioimmunoassay); assay type: in vivo, rat; settings: 50 mg/kg orally, 9-week-old male SD rats, serum testosterone two hours after administration, as percentage of control group
# Procedure: Assay of Inhibitory Activity on Testosterone Synthesis in Rats
# Test compounds (50 mg/kg) were orally administered to 9-week-old male SD (Sprague Dawley) rats. Two hours after administration of the compounds, blood was drawn and testosterone concentration in the obtained serum was measured by radioimmunoassay. The percentage (T/C, %) of the testosterone concentration of test compounds administration group to that of the control group was calculated, and taken as the inhibitory activity on testosterone synthesis.
"IC50 (Rat Steroid C17,20-lyase) [nM]",SMILES,"testosterone synthesis inhibitory activity (T/C, %) [1] [%]"
28,"CC(C)C(O)(c1ccc(-c2ccc(F)cc2)cc1)c1c[nH]cn1 (stereo not drawn) [Example 4, 1-(4′-fluoro[1,1′-biphenyl]-4-yl)-1-(1H-imidazol-4-yl)-2-methyl-1-propanol]",–
15,"CC(C)C(O)(c1cccc(-c2ccccc2)c1)c1c[nH]cn1 (stereo not drawn) [Example 6, 1-[1,1′-biphenyl]-3-yl-1-(1H-imidazol-4-yl)-2-methyl-1-propanol]",4.3
10,"COc1ccc(-c2cccc(C(O)(c3c[nH]cn3)C(C)C)c2)cc1 (stereo not drawn) [Example 9, 1-(1H-imidazol-4-yl)-1-(4′-methoxy[1,1′-biphenyl]-3-yl)-2-methyl-1-propanol]",4.6
8.3,"CC(C)C(O)(c1cccc(-c2ccc(F)cc2)c1)c1c[nH]cn1 (stereo not drawn) [Example 13, 1-(4′-fluoro[1,1′-biphenyl]-3-yl)-1-(1H-imidazol-4-yl)-2-methyl-1-propanol]",4.7
12,"Cc1ccccc1-c1cccc(C(O)(c2c[nH]cn2)C(C)C)c1 (stereo not drawn) [Example 17, 1-(1H-imidazol-4-yl)-2-methyl-1-(2′-methyl[1,1′-biphenyl]-3-yl)-1-propanol]",–
11,"CCC(O)(c1cccc(-c2ccc(F)cc2)c1)c1c[nH]cn1 (stereo not drawn) [Example 27, 1-[4′-fluoro[1,1′-biphenyl]-3-yl]-1-(1H-imidazol-4-yl)-1-propanol]",–
